Laboratory results published in ChEMBL document CHEMBL4414608, “Secophragmalin-Type Limonoids from Trichilia connaroides: Isolation, Semisynthesis, and Their Cytotoxic Activities” (J Nat Prod, 2019).
Calls of active or inactive are those of the source. The rule behind the calls is not given here.

Tests used:
HeLa = test: Cytotoxicity against human HeLa cells assessed as cell growth inhibition measured after 24 hrs by MTT assay; type: functional, cell-based
SK-OV-3 = test: Cytotoxicity against human SKOV3 cells assessed as cell growth inhibition measured after 24 hrs by MTT assay; type: functional, cell-based; conditions: SK-OV-3, 24 h
DU-145 [1] = test: Cytotoxicity against human DU145 cells assessed as cell growth inhibition measured after 24 hrs by MTT assay; type: functional, cell-based; conditions: DU-145, 24 h
A549 = test: Cytotoxicity against human A549 cells assessed as cell growth inhibition measured after 24 hrs by MTT assay; type: functional, cell-based; conditions: A549, 24 h
COLO 205 = test: Cytotoxicity against human COLO205 cells assessed as cell growth inhibition measured after 24 hrs by MTT assay; type: functional, cell-based; conditions: COLO 205, 24 h
DU-145 [2] = test: Induction of apoptosis in human DU145 cells assessed as early apoptotic cells at 3.6 uM measured after 24 hrs by Annexin-V/FITC and propidium iodide staining based flow cytometry (reference value: 0.25 %); type: functional
DU-145 [3] = test: Induction of apoptosis in human DU145 cells assessed as late apoptotic cells at 6 uM measured after 24 hrs by Annexin-V/FITC and propidium iodide staining based flow cytometry (reference value: 1.49 %); type: functional
DU-145 [4] = test: Induction of apoptosis in human DU145 cells assessed as necrotic cells at 3.6 uM measured after 24 hrs by Annexin-V/FITC and propidium iodide staining based flow cytometry (reference value: 2.64 %); type: functional
DU-145 [5] = test: Induction of apoptosis in human DU145 cells assessed as early apoptotic cells at 6 uM measured after 24 hrs by Annexin-V/FITC and propidium iodide staining based flow cytometry (reference value: 0.25 %); type: functional
DU-145 [6] = test: Cell cycle arrest in human DU145 cells assessed as accumulation at G0/G1 phase at 3.6 uM measured after 24 hrs by RNase A/propidium iodide staining based flow cytometry analysis (reference value: 51.75 %); type: functional
DU-145 [7] = test: Induction of apoptosis in human DU145 cells assessed as increase in total apoptotic cells measured after 24 hrs by Annexin-V/FITC and propidium iodide staining based flow cytometry; type: functional, cell-based
DU-145 [8] = test: Induction of apoptosis in human DU145 cells assessed as late apoptotic cells at 3.6 uM measured after 24 hrs by Annexin-V/FITC and propidium iodide staining based flow cytometry (reference value: 1.49 %); type: functional
DU-145 [9] = test: Induction of apoptosis in human DU145 cells assessed as necrotic cells at 6 uM measured after 24 hrs by Annexin-V/FITC and propidium iodide staining based flow cytometry (reference value: 2.64 %); type: functional
DU-145 [10] = test: Induction of apoptosis in human DU145 cells assessed as live cells at 6 uM measured after 24 hrs by Annexin-V/FITC and propidium iodide staining based flow cytometry (reference value: 95.62 %); type: functional
DU-145 [11] = test: Induction of apoptosis in human DU145 cells assessed as live cells at 3.6 uM measured after 24 hrs by Annexin-V/FITC and propidium iodide staining based flow cytometry (reference value: 95.62 %); type: functional
DU-145 [12] = test: Induction of apoptosis in human DU145 cells assessed as early apoptotic cells at 4.8 uM measured after 24 hrs by Annexin-V/FITC and propidium iodide staining based flow cytometry (reference value: 0.25 %); type: functional
DU-145 [13] = test: Induction of apoptosis in human DU145 cells assessed as live cells at 4.8 uM measured after 24 hrs by Annexin-V/FITC and propidium iodide staining based flow cytometry (reference value: 95.62 %); type: functional
DU-145 [14] = test: Cell cycle arrest in human DU145 cells assessed as accumulation at G2/M phase at 4.8 uM measured after 24 hrs by RNase A/propidium iodide staining based flow cytometry analysis; type: functional
DU-145 [15] = test: Induction of apoptosis in human DU145 cells assessed as late apoptotic cells at 4.8 uM measured after 24 hrs by Annexin-V/FITC and propidium iodide staining based flow cytometry (reference value: 1.49 %); type: functional
DU-145 [16] = test: Induction of apoptosis in human DU145 cells assessed as necrotic cells at 4.8 uM measured after 24 hrs by Annexin-V/FITC and propidium iodide staining based flow cytometry (reference value: 2.64 %); type: functional
DU-145 [17] = test: Induction of apoptosis in human DU145 cells assessed as necrotic cells at 7 uM measured after 24 hrs by Annexin-V/FITC and propidium iodide staining based flow cytometry (reference value: 2.64 %); type: functional
DU-145 [18] = test: Induction of apoptosis in human DU145 cells assessed as live cells at 4.2 uM measured after 24 hrs by Annexin-V/FITC and propidium iodide staining based flow cytometry (reference value: 95.62 %); type: functional
DU-145 [19] = test: Induction of apoptosis in human DU145 cells assessed as early apoptotic cells at 4.2 uM measured after 24 hrs by Annexin-V/FITC and propidium iodide staining based flow cytometry (reference value: 0.25 %); type: functional
DU-145 [20] = test: Cell cycle arrest in human DU145 cells assessed as accumulation at G0/G1 phase at 4.2 uM measured after 24 hrs by RNase A/propidium iodide staining based flow cytometry analysis (reference value: 51.75 %); type: functional
DU-145 [21] = test: Induction of apoptosis in human DU145 cells assessed as late apoptotic cells at 4.2 uM measured after 24 hrs by Annexin-V/FITC and propidium iodide staining based flow cytometry (reference value: 1.49 %); type: functional
DU-145 [22] = test: Induction of apoptosis in human DU145 cells assessed as early apoptotic cells at 7 uM measured after 24 hrs by Annexin-V/FITC and propidium iodide staining based flow cytometry (reference value: 0.25 %); type: functional
DU-145 [23] = test: Induction of apoptosis in human DU145 cells assessed as necrotic cells at 4.2 uM measured after 24 hrs by Annexin-V/FITC and propidium iodide staining based flow cytometry (reference value: 2.64 %); type: functional
DU-145 [24] = test: Induction of apoptosis in human DU145 cells assessed as late apoptotic cells at 7 uM measured after 24 hrs by Annexin-V/FITC and propidium iodide staining based flow cytometry (reference value: 1.49 %); type: functional
DU-145 [25] = test: Induction of apoptosis in human DU145 cells assessed as live cells at 7 uM measured after 24 hrs by Annexin-V/FITC and propidium iodide staining based flow cytometry (reference value: 95.62 %); type: functional

SMILES	IC50 (HeLa) [µM]	IC50 (SK-OV-3) [µM]	IC50 (DU-145 [1]) [µM]	IC50 (A549) [µM]	IC50 (COLO 205) [µM]	other results
C/C=C(\C)C(=O)O[C@@H]1[C@]2(OC(=O)C3CC3)C=C3C4=CC(=O)O[C@@H](c5ccoc5)[C@]4(C)CC[C@@H]3[C@@]3(C)[C@H](C[C@]1(C)[C@H]3[C@@H](OC(=O)C1CC1)C(=O)OC)O2	> 100	> 100	> 100	> 100	> 100	–
C/C=C(\C)C(=O)O[C@H]1[C@]2(C)C[C@@H]3O[C@@]1(O)C=C1C4=CC(=O)O[C@@H](c5ccoc5)[C@]4(C)CC[C@@H]1[C@]3(C)[C@@H]2[C@@H](OC(C)=O)C(=O)OC	> 100	> 100	> 100	> 100	> 100	–
C/C=C(\C)C(=O)O[C@H]1[C@]2(C)C[C@@H]3O[C@@]1(O)C=C1C4=CC(=O)O[C@@H](c5ccoc5)[C@]4(C)CC[C@@H]1[C@]3(C)[C@@H]2[C@@H](O)C(=O)OC	> 100	> 100	7.7	8.1	> 100	–
CCOC(=O)[C@H](O)[C@@H]1[C@@]2(C)C[C@@H]3O[C@@](O)(C=C4C5=CC(=O)O[C@@H](c6ccoc6)[C@]5(C)CC[C@@H]4[C@@]31C)[C@H]2O	> 100	> 100	3.6	16.3	> 100	Activity (DU-145 [2]): 0.84%; Activity (DU-145 [3]): 6.45%; Activity (DU-145 [4]): 2.8%; Activity (DU-145 [5]): 0.86%; Activity (DU-145 [6]): 47.2%; Activity (DU-145 [7]): Dose-dependent effect; Activity (DU-145 [8]): 5.39%; Activity (DU-145 [9]): 3.42%; Activity (DU-145 [10]): 89.27%; Activity (DU-145 [11]): 90.97%
COC(=O)[C@H](O)[C@@H]1[C@@]2(C)C[C@@H]3O[C@@](O)(C=C4C5=CC(=O)O[C@@H](c6ccoc6)[C@]5(C)CC[C@@H]4[C@@]31C)[C@H]2O	> 100	> 100	> 100	9.6	> 100	–
C/C=C(\C)C(=O)O[C@@H]1[C@]2(OC(=O)C3CC3)C=C3C4=CC(=O)O[C@@H](c5ccoc5)[C@]4(C)CC[C@@H]3[C@@]3(C)[C@H](C[C@]1(C)[C@H]3[C@@H](O)C(=O)OC)O2	> 100	> 100	> 100	11.8	> 100	–
C/C=C(\C)C(=O)O[C@H]1[C@]2(C)C[C@@H]3O[C@@]1(O)C=C1C4=CC(=O)O[C@@H](c5ccoc5)[C@]4(C)CC[C@@H]1[C@]3(C)[C@@H]2C(=O)C(=O)OC	> 100	> 100	> 100	44.4	> 100	–
C/C=C(\C)C(=O)O[C@@H]1C(=O)/C=C2/C3=CC(=O)O[C@@H](c4ccoc4)[C@]3(C)CC[C@@H]2[C@@]2(C)C(=O)C[C@]1(C)[C@@H]2[C@@H](O)C(=O)OC	> 100	> 100	10.5	> 100	> 100	–
C/C=C(\C)C(=O)O[C@@H]1[C@]2(OC(=O)CC)C=C3C4=CC(=O)O[C@@H](c5ccoc5)[C@]4(C)CC[C@@H]3[C@@]3(C)[C@H](C[C@]1(C)[C@H]3[C@@H](OC(=O)CC)C(=O)OC)O2	> 100	> 100	> 100	> 100	> 100	–
C/C=C(\C)C(=O)O[C@@H]1[C@]2(OC(=O)c3ccco3)C=C3C4=CC(=O)O[C@@H](c5ccoc5)[C@]4(C)CC[C@@H]3[C@@]3(C)[C@H](C[C@]1(C)[C@H]3[C@@H](OC(=O)c1ccco1)C(=O)OC)O2	> 100	> 100	17.8	7.6	> 100	–
COc1cccc2c1C(=O)c1c(O)c3c(c(O)c1C2=O)C[C@@](O)(C(=O)CO)C[C@@H]3O[C@H]1C[C@H](N)[C@H](O)[C@H](C)O1 [DOXORUBICIN]	7.9	3	4.8	5.3	3.8	Activity (DU-145 [12]): 2.41%; Activity (DU-145 [13]): 84.42%; Activity (DU-145 [14]): Active; Activity (DU-145 [15]): 10.77%; Activity (DU-145 [16]): 2.4%
C/C=C(\C)C(=O)O[C@@H]1[C@]2(OC(=O)C(C)C)C=C3C4=CC(=O)O[C@@H](c5ccoc5)[C@]4(C)CC[C@@H]3[C@@]3(C)[C@H](C[C@]1(C)[C@H]3[C@@H](OC(=O)C(C)C)C(=O)OC)O2	> 100	> 100	> 100	> 100	> 100	–
C/C=C(\C)C(=O)O[C@@H]1[C@]2(OC(=O)CCCC)C=C3C4=CC(=O)O[C@@H](c5ccoc5)[C@]4(C)CC[C@@H]3[C@@]3(C)[C@H](C[C@]1(C)[C@H]3[C@@H](OC(=O)CCCC)C(=O)OC)O2	> 100	> 100	4.2	5.5	> 100	Activity (DU-145 [17]): 3.91%; Activity (DU-145 [18]): 93.3%; Activity (DU-145 [19]): 0.86%; Activity (DU-145 [20]): 53.27%; Activity (DU-145 [21]): 3.39%; Activity (DU-145 [22]): 0.92%; Activity (DU-145 [7]): Dose-dependent effect; Activity (DU-145 [23]): 2.45%; Activity (DU-145 [24]): 5.73%; Activity (DU-145 [25]): 89.44%
C/C=C(\C)C(=O)O[C@@H]1[C@]2(OC(=O)CC)C=C3C4=CC(=O)O[C@@H](c5ccoc5)[C@]4(C)CC[C@@H]3[C@@]3(C)[C@H](C[C@]1(C)[C@H]3[C@@H](O)C(=O)OC)O2	> 100	> 100	6.7	> 100	> 100	–
